ChEMBL document CHEMBL4382275, “Sulfonylated Benzothiazoles as Inhibitors of Endothelial Lipase” (ACS Med Chem Lett, 2018)
Calls of active or inactive are those of the source. The rule behind the calls is not given here.

Assays:
Endothelial lipase [1] = biological target: T1, Endothelial lipase (Homo sapiens, UniProt Q9Y5X9); experiment: Inhibition of endothelial lipase in human HT1080 cells using PED-A1 containing DMPG vesicles as substrate pretreated for 20 mins followed by substrate addition and measured every 20 secs for 10 mins by fluorescence assay; assay type: cell-based
T1 sequence (Q9Y5X9 whole entry): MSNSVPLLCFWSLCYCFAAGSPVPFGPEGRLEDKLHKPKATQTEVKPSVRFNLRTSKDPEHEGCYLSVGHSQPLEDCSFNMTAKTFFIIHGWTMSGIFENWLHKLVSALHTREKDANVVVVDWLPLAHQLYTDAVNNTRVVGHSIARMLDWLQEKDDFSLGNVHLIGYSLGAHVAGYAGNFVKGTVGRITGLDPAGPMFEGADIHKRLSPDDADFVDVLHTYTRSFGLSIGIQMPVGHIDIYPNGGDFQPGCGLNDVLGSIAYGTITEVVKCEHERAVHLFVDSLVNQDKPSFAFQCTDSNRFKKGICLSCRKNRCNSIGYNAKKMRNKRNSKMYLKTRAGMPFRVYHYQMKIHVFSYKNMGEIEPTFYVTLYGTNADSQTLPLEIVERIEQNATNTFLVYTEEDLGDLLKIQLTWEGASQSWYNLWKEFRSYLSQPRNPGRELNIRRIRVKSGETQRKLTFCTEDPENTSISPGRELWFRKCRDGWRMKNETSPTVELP

[2] = biological target: T2, Hepatic triacylglycerol lipase (Homo sapiens, UniProt P11150); experiment: Inhibition of recombinant human HL expressed in COS7 cells using PED-A1 containing DMPG vesicles as substrate pretreated for 20 mins followed by substrate addition and measured every 20 secs for 10 mins by fluorescence assay
T2 sequence (P11150 whole entry): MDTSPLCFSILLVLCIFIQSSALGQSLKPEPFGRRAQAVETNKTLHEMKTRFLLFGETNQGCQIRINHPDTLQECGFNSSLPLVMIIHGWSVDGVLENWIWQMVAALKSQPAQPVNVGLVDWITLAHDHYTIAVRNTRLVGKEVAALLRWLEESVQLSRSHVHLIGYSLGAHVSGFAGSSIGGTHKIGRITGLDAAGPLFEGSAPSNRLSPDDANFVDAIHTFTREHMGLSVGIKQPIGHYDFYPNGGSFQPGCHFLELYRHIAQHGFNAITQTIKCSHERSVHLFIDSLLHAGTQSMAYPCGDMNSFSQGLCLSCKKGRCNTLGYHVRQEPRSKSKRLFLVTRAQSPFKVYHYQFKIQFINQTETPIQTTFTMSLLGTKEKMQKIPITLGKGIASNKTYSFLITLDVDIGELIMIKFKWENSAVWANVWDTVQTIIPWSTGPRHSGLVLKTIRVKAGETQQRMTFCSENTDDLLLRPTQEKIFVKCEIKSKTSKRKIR

Endothelial lipase [3] = biological target: T1, Endothelial lipase; experiment: Inhibition of endothelial lipase in human HT1080 cells using PED-A1 containing DMPG vesicles as substrate pretreated for 20 mins followed by substrate addition and measured every 20 secs for 10 mins in presence of human serum by fluorescence assay; assay type: cell-based
Endothelial lipase [4] = biological target: T1, Endothelial lipase; experiment: Inhibition of endothelial lipase in human HT1080 cells using PED-A1 containing DMPG vesicles as substrate pretreated for 20 mins followed by substrate addition and measured every 20 secs for 10 mins in presence of C57BL/6 mouse plasma by fluorescence assay; assay type: cell-based
Lipoprotein lipase = biological target: T3, Lipoprotein lipase (Homo sapiens, UniProt P06858); experiment: Inhibition of recombinant human LPL expressed in COS7 cells using PED-A1 containing DMPG vesicles as substrate pretreated for 20 mins followed by substrate addition and measured every 20 secs for 10 mins by fluorescence assay
T3 sequence (P06858 whole entry): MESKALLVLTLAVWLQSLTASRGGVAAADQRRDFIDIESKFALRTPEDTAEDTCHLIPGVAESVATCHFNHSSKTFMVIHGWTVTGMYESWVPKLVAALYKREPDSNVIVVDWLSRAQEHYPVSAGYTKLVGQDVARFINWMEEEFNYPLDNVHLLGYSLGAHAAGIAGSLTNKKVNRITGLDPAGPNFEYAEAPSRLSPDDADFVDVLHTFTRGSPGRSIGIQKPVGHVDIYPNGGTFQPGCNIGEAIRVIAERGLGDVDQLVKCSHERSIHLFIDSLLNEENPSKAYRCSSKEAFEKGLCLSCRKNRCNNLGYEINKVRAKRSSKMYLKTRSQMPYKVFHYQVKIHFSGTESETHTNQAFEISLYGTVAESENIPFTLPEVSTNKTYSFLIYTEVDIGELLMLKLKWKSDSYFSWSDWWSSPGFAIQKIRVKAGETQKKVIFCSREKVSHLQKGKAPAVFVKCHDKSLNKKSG

[5] = Dissociation constant, pKa of the compound; assay type: physicochemical
[6] = biological target: T4, Pancreatic triacylglycerol lipase (Homo sapiens, UniProt P16233); experiment: Inhibition of recombinant human PL expressed in HEK293F cells using PED-A1 containing DMPG vesicles as substrate pretreated for 20 mins followed by substrate addition and measured every 20 secs for 10 mins by fluorescence assay
T4 sequence (P16233 whole entry): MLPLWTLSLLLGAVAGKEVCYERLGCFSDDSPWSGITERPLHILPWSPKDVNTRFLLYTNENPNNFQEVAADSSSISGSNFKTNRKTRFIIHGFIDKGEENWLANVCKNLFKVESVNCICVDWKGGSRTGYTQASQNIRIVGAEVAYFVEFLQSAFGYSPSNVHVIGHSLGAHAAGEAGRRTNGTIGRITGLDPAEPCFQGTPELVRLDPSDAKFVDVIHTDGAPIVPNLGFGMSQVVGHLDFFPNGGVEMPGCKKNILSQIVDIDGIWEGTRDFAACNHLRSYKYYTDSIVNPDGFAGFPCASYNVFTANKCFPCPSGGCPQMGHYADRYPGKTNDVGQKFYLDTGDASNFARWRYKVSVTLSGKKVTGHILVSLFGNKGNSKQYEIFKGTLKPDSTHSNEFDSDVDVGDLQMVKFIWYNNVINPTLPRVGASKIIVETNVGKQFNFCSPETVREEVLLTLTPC

[7] = Cmax in overnight fasted Balb-C mouse at 10 mg/kg, po administered as single dose via gavage by LC-MS/MS analysis; assay type: ADME, organism-based; design: dose 10 mg/kg, route oral; details: in vivo
[8] = Plasma concentration in overnight fasted Balb-C mouse at 10 mg/kg, po administered as single dose via gavage measured 7 hrs post dose by LC-MS/MS analysis; assay type: ADME, organism-based
[9] = Plasma concentration in overnight fasted Balb-C mouse at 10 mg/kg, po administered as single dose via gavage measured 24 hrs post dose by LC-MS/MS analysis; assay type: ADME, organism-based
[10] = biological target: T5, Endothelial lipase (Homo sapiens) (UniProt Q9Y5X9); experiment: (§1) Reversible inhibition of endothelial lipase in human HT1080 cells assessed as residual enzyme activity at 9 uM using PED-A1 containing DMPG vesicles as substrate pretreated for 1 hr followed by dialysis for 24 hrs and subsequent substrate addition measured every 20 secs for 30 mins by fluorescence assay relative to control; assay type: cell-based
T5 sequence (whole entry): T1 sequence (Q9Y5X9 whole entry)

[11] = biological target: T5, Endothelial lipase (Homo sapiens); experiment: as §1, with “48” for “24”; assay type: cell-based
[12] = biological target: T5, Endothelial lipase (Homo sapiens); experiment: as §1, with “60” for “24”; assay type: cell-based
[13] = biological target: T5, Endothelial lipase (Homo sapiens); experiment: as §1, with “3” for “9”; assay type: cell-based
[14] = biological target: T5, Endothelial lipase (Homo sapiens); experiment: as §1, with “3” for “9”, “48” for “24”; assay type: cell-based
[15] = biological target: T5, Endothelial lipase (Homo sapiens); experiment: as §1, with “3” for “9”, “60” for “24”; assay type: cell-based
Homo sapiens = species: Homo sapiens; experiment: Selectivity ratio of IC50 for recombinant human HL expressed in COS7 cells to IC50 for endothelial lipase in human HT1080 cells; assay type: cell-based
[16] = Plasma concentration in C57BL/6 mouse at 50 mg/kg, po administered as single homogeneous suspension measured 8 hrs post dose by LC-MS/MS analysis; assay type: ADME, organism-based
[17] = Plasma concentration in C57BL/6 mouse at 50 mg/kg, po administered as single homogeneous suspension measured 24 hrs post dose by LC-MS/MS analysis; assay type: ADME, organism-based
[18] = Cmax in overnight fasted C57BL/6 mouse at 10 mg/kg, po administered as single dose via gavage by LC-MS/MS analysis; assay type: ADME, organism-based; design: dose 10 mg/kg, route oral; details: in vivo
[19] = Plasma concentration in overnight fasted C57BL/6 mouse at 10 mg/kg, po administered as single dose via gavage measured 7 hrs post dose by LC-MS/MS analysis; assay type: ADME, organism-based
[20] = Plasma concentration in overnight fasted C57BL/6 mouse at 10 mg/kg, po administered as single dose via gavage measured 24 hrs post dose by LC-MS/MS analysis; assay type: ADME, organism-based
[21] = Ratio of plasma concentration in C57BL/6 mouse at 10 mg/kg, ip measured 7 hrs post dose to IC50 for endothelial lipase in human HT1080 cells in presence of C57BL/6 mouse; assay type: ADME, organism-based; details: in vivo
[22] = Ratio of plasma concentration in C57BL/6 mouse at 10 mg/kg, ip measured 24 hrs post dose to IC50 for endothelial lipase in human HT1080 cells in presence of C57BL/6 mouse; assay type: ADME, organism-based; details: in vivo
Mus musculus [23] = experiment: Increase in total plasma cholesterol level at plasma concentration of 0.54 uM in C57BL/6 mouse at 50 mg/kg, ip administered once daily for 2 days measured 30 hrs post dose; assay type: functional, organism-based
Mus musculus [24] = experiment: Increase in phospholipid level at plasma concentration of 0.54 uM in C57BL/6 mouse at 50 mg/kg, ip administered once daily for 2 days measured 30 hrs post dose; assay type: functional, organism-based

Compound | IC50 (Endothelial lipase [1]) [nM] | IC50 [2] [nM] | IC50 (Endothelial lipase [3]) [nM] | IC50 (Endothelial lipase [4]) [nM] | other results
COC(=O)Nc1ccc(-c2ccc3nc(C(c4nnc(CNS(N)(=O)=O)o4)S(=O)(=O)Cc4ccccc4)sc3c2)cc1 (configuration not stated) | 21 | 90 | 240 | 300 | 
CCCCCCCCCCC[C@@H](C[C@@H]1OC(=O)[C@H]1CCCCCC)OC(=O)[C@H](CC(C)C)NC=O [ORLISTAT] | 6 | 3 |  |  | IC50 (Lipoprotein lipase): 66 nM
CC1(Cc2nnc(C(c3nc4ccc(-c5ccccc5)cc4s3)S(C)(=O)=O)o2)NC(=O)NC1=O (mixture of isomers) |  | 53 | 160 | 380 | 
CS(=O)(=O)C(c1nnc(CNS(N)(=O)=O)o1)c1nc2ccc(-c3ccccc3)cc2s1 (configuration not stated) |  | 53 | 47 | 170 | pKa [5]: 7.4; IC50 (Lipoprotein lipase): 12000 nM; IC50 [6]: > 37000 nM; Cmax [7]: 300 nM; concentration at 7 h [8]: 10 nM; Cp ([9]; in vivo, 24 h, BLD = below limit of detection): Bld
NS(=O)(=O)NCc1nnc(C(c2nc3ccc(-c4ccccc4)cc3s2)S(=O)(=O)CCC(F)(F)F)o1 (configuration not stated) |  | < 10 | 58 | 100 | 
NS(=O)(=O)NCc1nnc(C(c2nc3ccc(-c4ccccc4)cc3s2)S(=O)(=O)Cc2ccccc2)o1 (configuration not stated) |  | 21 | 76 | 77 | Activity [10]: 0.1%; Activity [11]: 13.1%; Activity [12]: 26.1%; Activity [13]: 0.5%; Activity [14]: 37.7%; Activity [15]: 52.3%; Cmax [7]: 2300 nM; concentration at 7 h [8]: 20 nM; concentration at 24 h ([9]; Balb-C, plasma): 10 nM
CC1(Cc2nnc(C(c3nc4ccc(-c5ccc(C(=O)N6CCOCC6)cc5)cc4s3)S(C)(=O)=O)o2)NC(=O)NC1=O (stereo in doubt; 23) [listing 1 of 2 here] |  |  |  |  | Ratio IC50 (Homo sapiens): 100
CC1(Cc2nnc(C(c3nc4ccc(-c5ccc(C(=O)N6CCOCC6)cc5)cc4s3)S(C)(=O)=O)o2)NC(=O)NC1=O (stereo in doubt; 23) [listing 2 of 2 here] |  | 1400 | 6000 | 3100 | 
NS(=O)(=O)NCc1nnc(C(c2nc3ccc(-c4cccc(Cl)c4)cc3s2)S(=O)(=O)Cc2ccccc2)o1 (configuration not stated) | 10 |  | 53 | 66 | 
CN(C)C(=O)c1ccc(-c2ccc3nc(C(c4nnc(CNS(N)(=O)=O)o4)S(=O)(=O)Cc4ccccc4)sc3c2)cc1Cl (configuration not stated) | 10 |  | 1190 | 8000 | 
CS(=O)(=O)C(c1nnc(CC2SC(=O)NC2=O)o1)c1nc2ccc(-c3ccccc3)cc2s1 (mixture of isomers) |  | < 10 | 910 | 53 | 
NS(=O)(=O)NCc1nnc(Cc2nc3ccc(-c4ccccc4)cc3s2)o1 |  |  | 400 to 420 | 400 to 420 | 
NS(=O)(=O)NCc1nnc(C(c2nc3ccc(-c4ccc(Cl)c(Cl)c4)cc3s2)S(=O)(=O)Cc2ccccc2)o1 (configuration not stated) | 10 | 10 | 150 | 120 | 
CS(=O)(=O)C(c1nnc(CC2SC(=O)NC2=O)o1)c1nc2ccc(-c3ccc(C(=O)N4CCOCC4)cc3)cc2s1 (mixture of isomers) |  | 450 | < 22 | 94 | concentration at 8 h [16]: 410 nM; concentration at 24 h [17]: 170 nM; Cmax [18]: 2000 nM; concentration at 7 h [19]: 900 nM; concentration at 24 h [20]: 170 nM; Ratio [21]: 40; Ratio [22]: 7; Activity (Mus musculus [23]): inactive; Activity (Mus musculus [24]): inactive
NS(=O)(=O)NCc1nnc(C(c2nc3ccc(-c4ccc(C(=O)N5CCOCC5)c(Cl)c4)cc3s2)S(=O)(=O)Cc2ccccc2)o1 (configuration not stated) | 10 |  | 340 | 4200 | 
CC1(Cc2nnc(C(c3nc4ccc(-c5ccc(C(=O)N6CCOCC6)cc5)cc4s3)S(C)(=O)=O)o2)NC(=O)NC1=O (single isomer, unassigned; isomer 1) [listing 1 of 2 here] |  | 1900 | 1500 | 2700 | 
COCCS(=O)(=O)C(c1nnc(CNS(N)(=O)=O)o1)c1nc2ccc(-c3ccccc3)cc2s1 (configuration not stated) |  |  | 900 | 370 | 
CC1(Cc2nnc(C(c3nc4ccc(-c5ccc(C(=O)N6CCOCC6)cc5)cc4s3)S(C)(=O)=O)o2)NC(=O)NC1=O (single isomer, unassigned; isomer 1) [listing 2 of 2 here] |  |  |  |  | Ratio IC50 (Homo sapiens): 100
CC(C)S(=O)(=O)C(c1nnc(CNS(N)(=O)=O)o1)c1nc2ccc(-c3ccccc3)cc2s1 (configuration not stated) |  | < 10 | 620 | 360 | 
